# Data taken from patent US10975399B2, “Use of nitric oxide or nitric oxide donor for inducing the production of triacylglycerols in microalgae” (Commissariat A L'energie Atomique Et Aux Energies …, priority 2016, dated 2021).
# Tests used:
# [1] = system: Phaeodactylum tricornutum; test: Growth of P. tricornutum incubated with the NO donor (cell counting); format: cell-based; conditions: 1 mM, 2-day incubation, 500 μL volume, 10×ESAW medium, FIG. 1
# Method: FIGS. 1 to 4: Effect of increasing concentrations of SNAP on the production of TAG in Phaedocatylum tricornutum. The medium used was 10×ESAW; incubation was performed in 500 μl, inoculated at 1E+06 cells/ml, with immediate addition of chemicals. Measurements were performed after 2 days of incubation. Data of FIGS. 1 and 2 and 3 are the results of 3 biological replicates, FIG. 4 was a time course without replicates. NAP was used as a non-active analogue of SNAP. FIG. 1: Effect of increasing concentrations of SNAP on growth. Growth is measured in cell/mL. Phaeodactylum tricornutum (Ptl) Bohlin Strain 8.6 CCMP2561 (Culture Collection of Marine Phytoplankton, now known as NCMA: National Center for Marine Algae and Microbiota) was used in all experiments. Ptl was grown at 20° C. in 250 mL flask in artificial seawater (ESAW) medium (composition of the medium see table 1) using ten times enriched nitrogen and phosphate sources (5.49·10^−3 M NaNO3 and 2.24·10^−4 NaH3PO4) called “10×ESAW”, or nitrogen-depleted medium. Cells were grown on a 12:12 light (30 μE m^−2sec^−1)/dark cycle. Cells were sub-cultured twice a week by inoculating 1·10^6 cells/ml with fresh media. Growth was evaluated by cell counting using a Malassez counting chamber, or by the absorption at 750 nm using a plate reader. S-Nitroso-N-acetylpenicillamine (SNAP) is a compound that spontaneously releases NO, when dissolved.
# [2] = system: Phaeodactylum tricornutum; test: TAG accumulation by Nile Red staining; format: cell-based; conditions: 1 mM, 2-day incubation, 500 μL volume, 10×ESAW medium
# Method: FIGS. 1 to 4: Effect of increasing concentrations of SNAP on the production of TAG in Phaedocatylum tricornutum. The medium used was 10×ESAW; incubation was performed in 500 μl, inoculated at 1E+06 cells/ml, with immediate addition of chemicals. Measurements were performed after 2 days of incubation. Data of FIGS. 1 and 2 and 3 are the results of 3 biological replicates, FIG. 4 was a time course without replicates. NAP was used as a non-active analogue of SNAP. FIG. 2: Effect of increasing concentrations of SNAP on TAG level per cell. TAG level per cell is given in relative fluorescence units/10^6 cells. FIG. 3: Effect of increasing concentrations of SNAP on TAG productivity. TAG productivity is given in relative fluorescence unit (Rfu) corresponding to the fluorescence of Nile Red per mL and per day. […] Growth was evaluated by cell counting using a Malassez counting chamber, or by the absorption at 750 nm using a plate reader. […] Accumulation of TAG droplets was monitored by Nile Red (Sigma Aldrich) fluorescent staining (Excitation wavelength at 485 nm; emission at 525 nm) following the principles previously described (Abida et al., 2015). In brief, cells were diluted and adjusted to a cell density that was linearly correlated with Nile Red fluorescence. […] Alternatively, Nile red fluorescence values were normalized to the cell concentration.
compound,measurement,setting,value
"CC(=O)N[C@H](C(=O)O)C(C)(C)SN=O (racemic) [SNAP, S-Nitroso-N-acetylpenicillamine]",cell growth,[1],reduction of cell growth
same,increase of productivity (level of TAG per volume of culture and per day),"[2]; Nile Red Rfu per mL and per day, FIG. 3",> 2 fold
same,increase of TAG per cell,"[2]; Nile Red fluorescence per 10^6 cells, FIG. 2",2.2 fold
